Data set [1] concerns DIO mouse. Nature of the data set: Anti-obesity effect test using DIO mouse. The class given is in vivo. The note with it: 336 h, DIO mice, vs vehicle group, read-out: Weight loss rate. As to the method: (Test Example 4): Anti-Obesity Effect Test Using DIO Mouse
Diet-induced obesity (DIO) mice (D-12492 diet, male, C57BL-DIO, 26 to 28-week old) were orally administered with a 0.5 W/V % methylcellulose suspension comprising each test compound (Compound administration group, 5 or 6 mice/group) or a 0.5 W/V % methylcellulose suspension (Compound non-administration group (Vehicle group), 6 mice/group) once daily for 2 weeks. Weight loss rate was calculated by the following equation. Weight loss rate (%) of each Compound administration group−(1−average weight at the last day of the test of each Compound administration group/average weight at the last day of the test of Vehicle group)×100

Data set [2] has as its target T1, Human recombinant enteropeptidase (Homo sapiens, UniProt P98073).
T1 construct: purchased BIO Vision Inc. 7529-50
As to the kind of experiment: Human enteropeptidase inhibition test. The class given is biochemical. To be noted: read-out: Inhibition rate (enteropeptidase); for inhibition at 0.001 µM: compound concentration 1 nM. How it is done: (Test Example 1): Human Enteropeptidase Inhibition Test
Human recombinant enteropeptidase (manufactured by BIO Vision Inc., catalog no.: 7529-50) was diluted with an assay buffer (50 mM tricine (pH8.0), 0.01 W/V % Tween 20, 10 mM CaCl2) to prepare an […] enzyme solution. Then, 5FAM-Abu-Gly-Asp-Asp-Lys-Ile-Val-Gly-Gly-Lys (CPQ2)-Lys-Lys-NH2 (manufactured by CHINESE PEPTIDE COMPANY, purity: 94.5) was diluted with the assay buffer to prepare a 1.5 μM substrate solution. Each test compound was dissolved into DMSO, then diluted with the assay buffer 100 times, and further appropriately diluted with an assay buffer comprising 1% DMSO to prepare each compound solution. 10 μL of the compound solution, 15 μL of the assay buffer, and 50 μL of the substrate solution were added to a 96 well black plate (manufactured by Thermo Fisher Scientific Inc., code no.: 9502867), mixed, then 25 μL of the enzyme solution was added thereto, and mixed to start the reaction. Fluorescence intensities at excitation wavelength 485 nm and fluorescence wavelength 535 nm were measured by using a fluorescence plate reader (Flex station 3) (Test compound addition group). Also, the same reaction as described above except for not adding each test compound was carried out (Test compound non-addition group). Additionally, the same reaction as described above except for not adding each test compound and the enzyme was carried out (Control group). Inhibition rate was calculated by the following equation using fluorescence intensity after 20 minutes of reaction start. Inhibition rate (%)=(1−(fluorescence intensity of Test compound addition group−fluorescence intensity of Control group)÷(fluorescence intensity of Test compound non-addition group−fluorescence intensity of Control group))×100

Data set [3] deals with T2, Human recombinant trypsin (Homo sapiens, UniProt P07477).
T2 construct: purchased Wako Pure Chemical Industries, Ltd. 206-17171
As to the kind of experiment: Human trypsin inhibition test. The class given is biochemical. The note with it: 20 minutes after reaction start, read-out: Inhibition rate (trypsin); for inhibition at 0.01 µM: compound concentration 10 nM; for inhibition at 0.1 µM: compound concentration 100 nM; for inhibition at 0.001 µM: compound concentration 1 nM. How it is done: (Test Example 2): Human Trypsin Inhibition Test
Human recombinant trypsin (manufactured by Wako Pure Chemical Industries, Ltd., code no.: 206-17171) was diluted with an assay buffer (0.1 M Tris-HCl (pH8.0), 0.15 M NaCl, 10 mM CaCl2, 0.05% Brij35) to prepare a 10 ng/mL enzyme solution. Then, Boc-Phe-Ser-Arg-MCA (manufactured by PEPTIDE INSTITUTE, INC., code no.: 3107-v) was diluted with the assay buffer to prepare a 40 μM substrate solution. Each test compound was dissolved into DMSO, then diluted with the assay buffer 100 times, and further appropriately diluted with an assay buffer comprising 1% DMSO to prepare each compound solution. 10 μL of the compound solution, 15 μL of the assay buffer, and 50 μL of the substrate solution were added to a 96 well black plate (manufactured by Thermo Fisher Scientific Inc., code no.: 9502867), mixed, and then 25 μL of the enzyme solution was added thereto, and mixed to start the reaction. Fluorescence intensities at excitation wavelength 355 nm and fluorescence wavelength of 460 nm were measured by using a fluorescence plate reader (Flex station 3) (Test compound addition group). Also, the same reaction as described above except for not adding each test compound was carried out (Test compound non-addition group). Additionally, the same reaction as described above except for not adding each test compound and the enzyme was carried out (Control group). Inhibition rate was calculated by the following equation using fluorescence intensity after 20 minutes of reaction start. Inhibition rate (%)=(1−(fluorescence intensity of Test compound addition group−fluorescence intensity of Control group)[…](fluorescence intensity of Test compound non-addition group−fluorescence intensity of Control group))×100

The test system of data set [4] is HFD-fed mouse. Nature of the data set: Fecal protein concentration-increasing test by single administration using HFD-fed mouse. The note with it: 24 h, HFD-fed mice, vs vehicle group, read-out: Ratio for an increase of protein concentration in feces; for response vs control in vivo at 30 mg/kg: single oral dose 30 mg/kg. The data set is classed as in vivo. The text has this:
(Test Example 3): Fecal Protein Concentration-Increasing Test by Single Administration Using HFD-Fed Mouse
High fat diet-fed (HFD-fed) mice (D-12492 diet, male, ICR, 6 week old) were orally administered with a 0.5 W/V % methylcellulose suspension comprising each test compound (Compound administration group, 4 or 5 mice/group) or a 0.5 W/V % methylcellulose suspension (Compound non-administration group (Vehicle group), 5, 6, or 7 mice/group), and whole feces of the day were collected. Dried feces were dissolved into a 0.5N aqueous sodium hydroxide solution, followed by centrifugation at 3500 rpm. Then each protein concentration in the resulting supernatant was determined (Lowry method), and the ratio for an increase of protein concentration in feces was calculated by the following equation using the protein concentration in feces contained in 1 g of feces (mg/g feces). Ratio for an increase of protein concentration in feces−(average protein concentration in feces of Compound administration group)[…](average protein concentration in feces of Compound non-administration group)

Data set [5] can be described thus: Rat pharmacokinetic (PK) test (plasma concentration after oral administration). To be noted: male, SD, 9 mg/kg.
[6] abbreviates: 20 minutes after reaction start.
[7] abbreviates: compound concentration 10 nM, 20 minutes after reaction start.
Where [8] appears, read: compound concentration 100 nM, 20 minutes after reaction start.

Structures can show the parent of a compound that is named as a salt. Where two headings read alike, the source gives them in different places.

T1 sequence (P98073 whole entry): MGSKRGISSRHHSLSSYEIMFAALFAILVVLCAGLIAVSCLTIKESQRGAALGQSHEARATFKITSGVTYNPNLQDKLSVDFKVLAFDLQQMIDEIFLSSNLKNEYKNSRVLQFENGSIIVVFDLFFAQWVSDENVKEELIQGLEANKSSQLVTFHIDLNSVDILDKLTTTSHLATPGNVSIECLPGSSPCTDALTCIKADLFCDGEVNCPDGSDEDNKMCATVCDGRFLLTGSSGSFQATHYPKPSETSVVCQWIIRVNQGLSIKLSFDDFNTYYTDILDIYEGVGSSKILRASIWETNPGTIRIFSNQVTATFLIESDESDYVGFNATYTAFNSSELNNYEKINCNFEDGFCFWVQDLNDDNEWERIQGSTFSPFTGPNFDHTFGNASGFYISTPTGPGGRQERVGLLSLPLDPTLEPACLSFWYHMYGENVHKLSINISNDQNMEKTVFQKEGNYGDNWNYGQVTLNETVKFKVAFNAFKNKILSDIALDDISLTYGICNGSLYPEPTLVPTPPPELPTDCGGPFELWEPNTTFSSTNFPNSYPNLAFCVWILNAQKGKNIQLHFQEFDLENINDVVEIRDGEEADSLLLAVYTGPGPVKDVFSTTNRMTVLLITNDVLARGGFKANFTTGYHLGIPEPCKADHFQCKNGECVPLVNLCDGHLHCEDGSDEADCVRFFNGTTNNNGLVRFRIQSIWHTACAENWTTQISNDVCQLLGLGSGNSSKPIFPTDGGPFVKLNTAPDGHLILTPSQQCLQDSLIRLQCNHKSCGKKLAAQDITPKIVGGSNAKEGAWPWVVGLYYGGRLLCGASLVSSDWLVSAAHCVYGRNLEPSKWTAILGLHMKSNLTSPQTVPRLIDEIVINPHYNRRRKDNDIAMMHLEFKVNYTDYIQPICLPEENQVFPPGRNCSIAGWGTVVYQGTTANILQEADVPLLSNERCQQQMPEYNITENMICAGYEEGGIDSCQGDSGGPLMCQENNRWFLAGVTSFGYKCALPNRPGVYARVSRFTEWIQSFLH

The inhibition is the change of the read-out against control, counted positive when it falls. With `N=C(N)Nc1ccc2c(c1)CCCOc1c(cccc1C(=O)N(CCOCCOCCN(C(=O)c1cccc3c1OCCCc1cc(NC(=N)N)ccc1C(=O)O3)[C@H](CC(=O)O)C(=O)O)[C@H](CC(=O)O)C(=O)O)OC2=O` [21-(b), (2R,13R)-3,12-bis(10-guanidino-13-oxo-6,7,8,13-tetrahydrodibenzo[b,f][1,4]dioxecin-4-carbonyl)-6,9-dioxa-3,12-diazatetradecane-1,2,13,14-tetracarboxylic acid trifluoroacetate], the inhibition in vivo at 25 mg/kg in data set [1] (oral 25 mg/kg once daily for 2 weeks) is not below 4%. In data set [2] (setting [6]), the inhibition at 0.001 µM was not below 50%. For the same compound, the inhibition at 0.01 µM in data set [2] (setting [7]) and in data set [3] was not below 50% each time. For the same compound, the inhibition at 0.1 µM in data set [2] (setting [8]) and in data set [3] was not below 50% in each case. The response vs control in vivo at 30 mg/kg in data set [4] was not below 130%.

In the case of `N=C(N)Nc1ccc(C(=O)Oc2ccc(CNS(=O)(=O)N(CCOCCOCCOCCN([C@@H](CC(=O)O)C(=O)O)S(=O)(=O)NCc3ccc(OC(=O)c4ccc(NC(=N)N)cc4)cc3)[C@@H](CC(=O)O)C(=O)O)cc2)cc1` [3-(b), (2S,163)-3,15-bis(N-(4-((4-guanidinobenzoyl)oxy)benzyl)sulfamoyl)-6,9,12-trioxa-3,15-diazaheptadecane-1,2,16,17-tetracarboxylic acid trifluoroacetate], the inhibition at 0.001 µM in data set [2] (setting [6]) and in data set [3] was not below 50% each time. The inhibition at 0.01 µM in data set [2] (setting [7]) and in data set [3] was not below 50% each time. Further, the inhibition at 0.1 µM in data set [2] (setting [8]) and in data set [3] was not below 50% in each case. Besides, in data set [4], the response vs control in vivo at 30 mg/kg is not below 130%.

As for `N=C(N)Nc1ccc(C(=O)Oc2ccc(CNS(=O)(=O)N(CCOCCOCCOCCOCCOCCN([C@@H](CC(=O)O)C(=O)O)S(=O)(=O)NCc3ccc(OC(=O)c4ccc(NC(=N)N)cc4)cc3)[C@@H](CC(=O)O)C(=O)O)cc2)cc1` [5-(b), (2S,22S)-3,21-bis(N-(4-((4-guanidinobenzoyl)oxy)benzyl)sulfamoyl)-6,9,12,15,18-pentaoxa-3,21-diazatricosane-1,2,22,23-tetracarboxylic acid trifluoroacetate], in data set [2], the inhibition at 0.01 µM is not below 50% and the inhibition at 0.1 µM was not below 50%. Also, in data set [3], the inhibition at 0.001 µM was not below 50%, the inhibition at 0.01 µM is not below 50% and the inhibition at 0.1 µM was not below 50%. For the same compound, in data set [4], the response vs control in vivo at 30 mg/kg was not below 130%.

In the case of `N=C(N)Nc1ccc(C(=O)Oc2ccc(CNS(=O)(=O)N(CCCCN([C@@H](CC(=O)O)C(=O)O)S(=O)(=O)NCc3ccc(OC(=O)c4ccc(NC(=N)N)cc4)cc3)[C@@H](CC(=O)O)C(=O)O)cc2)cc1` [8-(c), (2S,2′S)-2,2′-(butane-1,4-diylbis((N-(4-((4-guanidinobenzoyl)oxy)benzyl)sulfamoyl)azanediyl))disuccinic acid hydrochloride], in data set [4], the response vs control in vivo at 30 mg/kg is not below 130%.

Consider `N=C(N)Nc1ccc(C(=O)Oc2ccc(CNS(=O)(=O)N(CCOCCOCCN([C@@H](CC(=O)O)C(=O)O)S(=O)(=O)NCc3ccc(OC(=O)c4ccc(NC(=N)N)cc4)cc3)[C@@H](CC(=O)O)C(=O)O)cc2)cc1` [2-(b), (2S,13S)-3,12-bis(N-(4-((4-guanidinobenzoyl)oxy)benzyl)sulfamoyl)-6,9-dioxa-3,12-diazatetradecane-1,2,13,14-tetracarboxylic acid trifluoroacetate], for which the inhibition at 0.001 µM in data set [2] (setting [6]) and in data set [3] was not below 50% throughout. The inhibition at 0.01 µM in data set [2] (setting [7]) and in data set [3] was not below 50% throughout. For the same compound, the inhibition at 0.1 µM in data set [2] (setting [8]) and in data set [3] was not below 50% throughout. For the same compound, in data set [4] (single oral dose 86 mg/kg), the response vs control in vivo at 86 mg/kg is not below 130%.

As to `N=C(N)Nc1ccc(C(=O)Oc2ccc(CNS(=O)(=O)N(CCOCCOCCOCCOCCOCCOCCN([C@@H](CC(=O)O)C(=O)O)S(=O)(=O)NCc3ccc(OC(=O)c4ccc(NC(=N)N)cc4)cc3)[C@@H](CC(=O)O)C(=O)O)cc2)cc1` [6-(b), (2S,25S)-3,24-bis(N-(4-((4-guanidinobenzoyl)oxy)benzyl)sulfamoyl)-6,9,12,15,18,21-hexaoxa-3,24-diazahexacosane-1,2,25,26-tetracarboxylic acid trifluoroacetate], the inhibition at 0.01 µM in data set [2] and in data set [3] was not below 50% in each case. The inhibition at 0.1 µM in data set [2] and in data set [3] was not below 50% throughout. The response vs control in vivo at 30 mg/kg in data set [4] is not below 130%.

As usually defined, the AUC is concentration integrated over time. Low readings indicate less exposure, high ones more exposure. As to `N=C(N)Nc1ccc(C(=O)Oc2ccc(CNS(=O)(=O)N(Cc3cccc(C(=O)NCCOCCOCCOCCOCCNC(=O)c4cccc(CN([C@@H](CC(=O)O)C(=O)O)S(=O)(=O)NCc5ccc(OC(=O)c6ccc(NC(=N)N)cc6)cc5)c4)c3)[C@@H](CC(=O)O)C(=O)O)cc2)cc1` [18-(b), (2S,2′S)-2,2′-((((5,8,11,14-tetraoxa-2,17-diazaoctadecane-1,18-dioyl)bis(3,1-phenylene))bis(methylene))bis(N-(4-((4-guanidinobenzoyl)oxy)benzyl)sulfamoyl)azanediyl))disuccinic acid trifluoroacetate], the inhibition in vivo at 90 mg/kg in data set [1] (oral 90 mg/kg once daily for 2 weeks) is not below 4%. Moreover, in data set [2], the inhibition at 0.01 µM was not below 50% and the inhibition at 0.1 µM is not below 50%. Further, in data set [3], the inhibition at 0.001 µM is not below 50%, the inhibition at 0.01 µM was not below 50% and the inhibition at 0.1 µM was not below 50%. Moreover, the AUC in data set [5] is not above 100 ng·h/mL.

Values taken from patent publication US11465965B2, “Double-headed protease inhibitor” (UBE INDUSTRIES, LTD., priority 2017, dated 2022).
